# According to PubChem BioAssay (NCI):
#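 In this assay, cells in 96-well plates receive the compound at five concentrations for 48 hours. Endpoints are linearly interpolated between the surrounding concentrations. At the GI50, growth is halved. Definition used: TGI = concentration required for complete inhibition of growth.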
# What was measured:
# Test in all cases: DTP human tumour cell line panel, 48 h
# OVCAR-8 ovarian = system: OVCAR-8 ovarian
# UO-31 renal = system: UO-31 renal
# K-562 leukemia = system: K-562 leukemia
# SK-MEL-28 melanoma = system: SK-MEL-28 melanoma
# HT29 colon = system: HT29 colon
# HCC-2998 colon = system: HCC-2998 colon
# A498 renal = system: A498 renal
# SNB-75 CNS = system: SNB-75 CNS
# CCRF-CEM leukemia = system: CCRF-CEM leukemia
# MCF7 breast = system: MCF7 breast
smiles,measurement,setting,value
CN(C)c1ccc(/C=C(/NC(=O)c2ccccc2)c2nc3ccc(Cl)cc3[nH]2)cc1,TGI,OVCAR-8 ovarian,> 100 µM
same,TGI,UO-31 renal,> 100 µM
same,TGI,K-562 leukemia,> 73.8 µM
same,TGI,SK-MEL-28 melanoma,> 100 µM
same,TGI,HT29 colon,78.5 µM
same,TGI,HCC-2998 colon,> 75.5 µM
same,TGI,A498 renal,> 100 µM
same,TGI,SNB-75 CNS,> 91.3 µM
same,TGI,CCRF-CEM leukemia,> 84 µM
same,GI50,MCF7 breast,24.5 µM
same,TGI,MCF7 breast,> 100 µM
